# Measurements as given in patent publication US9675617B2, “Tetrahydrofolates in combination with EGFR-inhibitors” (ISOFOL MEDICAL AB, priority 2012, dated 2017).
# Key:
# [1] = in the body; no source or species given; cited from earlier work
# [2] = system: LoVo tumor cells; test: Anti-tumoral efficacy in the colorectal adenocarcinoma xenograft model LoVo; format: in vivo, NCr nu/nu mice
# Description: Study Design: A total of 50 female NCr nu/nu mice (10 per group) at the age of 8-12 weeks were injected with 1×10^7 LoVo tumor cells in 50% Matrigel sc in flank. After seven days they were administered intraperitoneal injections according to the schedule in table 2. Animals were monitored individually. The endpoint of the experiment was a tumor weight of 1000 mm^3 or 75 days, whichever came first. Responders could be followed longer. When the endpoint was reached, the animals were euthanized. Body weight (g) and tumor volume (mm^3) was measured on days 1, 2, 3, 4, 5, 7, 11, 14, 18, 21, 25, 28, 32, 35, 39, 42, 46, 49, 53, 56, 60, 63, 67, 70 and 74.
Compound,half life [1],"Median tumor volume over time (FIG. 2), in words ([2]; LoVo xenograft, days 1-74)","Time to endpoint, Kaplan-Meier plot (FIG. 3), in words ([2]; endpoint: tumor weight of 1000 mm^3 or 75 days)"
"CN1c2c(nc(N)[nH]c2=O)NCC1CNc1ccc(C(=O)N[C@@H](CCC(=O)O)C(=O)O)cc1 (stereo partly shown) [methyl-THF, 5-methyltetrahydrofolate]",approximately 5 hours,,
"Nc1nc2c(c(=O)[nH]1)N1CN(c3ccc(C(=O)N[C@@H](CCC(=O)O)C(=O)O)cc3)CC1CN2 (stereo partly shown) [methylene-THF, 5,10-methylene tetrahydrofolate]",approximately 20 min,enhances the anti-tumor growth effect of cetuximab,enhancing the beneficial effect of cetuximab
